In data set [1] the test system is L-glutamic acid transporter. In words: Incorporation of [^3H]L-glutamic acid into astrocyte cell lines TR-AST (glutamic acid transport ability). It counts as cell-based, rat. The following applies: for incorporation of [^3H]L-Glu, expressed in % relative to the control: 1 mM of the inhibitor, control = 100±5; for inhibition of incorporation of [^3H]L-Glu (in words): other substrates of the transporter. As for the experimental part: The glutamic acid transport ability of the cell lines obtained in Example 4, that is, TR-AST32, TR-AST811, TR-AST912, TR-AST932, TR-AST943 was examined by incorporation of [^3H]L-glutamic acid ([^3H]L-Glu). Each TR-AST's was plated onto a 24-well cell culture plate at a density of 2×10^5 cells/well and cultured in a CO2 incubator at 33°C to make the cells confluent. The incorporation of [^3H]L-Glu was measured in the following manner. First, the medium was suctioned, and the cells were washed with an uptake buffer at 37°C, and 0.2 mℓ uptake buffer containing 46.3 kBq/well [^3H]L-Glu and 9.25 kBq/mℓ [^14C]inulin at 37°C was added, and the tracer solution was removed after 2, 5, 10 or 30 minutes, and the cells were washed 3 times with 1 mℓ uptake buffer at 4°C. To the cells, 0.75 mℓ of 1% Triton X-100 was added, and the cells were allowed to stand overnight so that they were lyzed and then the lysate was measured for radioactivity in a liquid scintillation counter.
The Km and Vmax for incorporation of […] were analyzed using a non-linear minimum square program [Yamaoka, K. et al., J. Pharmacobio-Dyn, 4, 879-885 (1981)] using a plot formula (V = Vmax × [S]/(Km + [S]); Vmax is a maximum rate constant, Km is a Michaelis constant, and [S] is a substrate concentration) for the rate of incorporation of L-Glu. […]

The next data set deals with T1, GLUT1 (Mus musculus, UniProt P17809).
T1 construct: A band indicating the expression of GLUT-1 was confirmed in any of TM-BBB1, TM-BBB2, TM-BBB3, TM-BBB4 and TM-BBB5; endogenous in cells; host or cells: TM-BBB1 to TM-BBB5, conditionally immortalised mouse brain capillary endothelial cell lines (SV40tsA58 large T transgenic mice)
T1 sequence (P17809 1-492): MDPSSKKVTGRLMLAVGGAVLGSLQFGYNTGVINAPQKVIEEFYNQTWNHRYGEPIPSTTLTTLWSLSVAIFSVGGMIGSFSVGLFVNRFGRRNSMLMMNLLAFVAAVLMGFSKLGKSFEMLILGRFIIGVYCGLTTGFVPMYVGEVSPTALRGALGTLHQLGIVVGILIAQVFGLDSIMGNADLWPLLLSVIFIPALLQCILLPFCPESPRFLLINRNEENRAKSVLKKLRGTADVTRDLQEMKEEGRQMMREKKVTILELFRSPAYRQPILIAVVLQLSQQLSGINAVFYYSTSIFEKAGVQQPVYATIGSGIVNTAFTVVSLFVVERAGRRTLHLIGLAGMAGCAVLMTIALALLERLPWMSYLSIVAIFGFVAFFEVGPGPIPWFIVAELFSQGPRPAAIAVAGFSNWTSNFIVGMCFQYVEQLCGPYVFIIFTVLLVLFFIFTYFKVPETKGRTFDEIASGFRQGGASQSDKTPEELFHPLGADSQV
In words: Incorporation of 3-O-methyl-D-glucose (3-OMG) into brain capillary endothelial cell lines TM-BBB (glucose transfer ability). The following applies: incorporation of [^3H]3-OMG into TM-BBB cell lines, uptake buffer 37°C, 20 seconds. It counts as cell-based. How it is done:
(§1) Each of TM-BBB's was plated onto a 24-well cell culture plate at a density of 3×10^5 cells/well/mℓ medium and cultured in a CO2 incubator at 33°C for 24 hours to make the cells confluent. The incorporation of 3-OMG was measured in the following manner. […] Ten seconds later, the uptake buffer was removed, and the cells were washed with the uptake buffer at 4°C. Subsequently, the uptake buffer was removed after 20 seconds, 30 seconds, 1 minute, or 10 minutes, and the cells were treated in the same manner. […] Twenty seconds later, the uptake buffer was removed, and the cells were washed with the uptake buffer at 4°C. Then, the cells were lyzed overnight with 1 mℓ PBS containing 1% Triton X-100 and then measured for radioactivity in a liquid scintillation counter. […] Pharmacobio-Dyn, 4: 879-885 (1981)] using a plot formula (V = Vmax x [S]/(Km + [S]); […]

Substrate in data set [2]: CO[C@@H]([C@H](O)[C@H](O)CO)[C@@H](O)C=O
Described as above. The following applies: other: incorporation of [^3H]3-OMG into TM-BBB cell lines, uptake buffer 37°C, 20 seconds, 0.5-50 mM unlabelled 3-OMG, pH 7.4. It counts as cell-based, mouse. How it is done:
as §1

For the molecule `N[C@H](CC(=O)O)C(=O)O` [D-Asp, D-aspartic acid], in data set [1], the “incorporation of [^3H]L-Glu, expressed in % relative to the control” value (“incorporation … in % relative to the control” for short) came out at 67±6% and the “inhibition of incorporation of [^3H]L-Glu (in words)” value is on record as “significantly inhibited”.

For `CO[C@@H]([C@H](O)[C@H](O)CO)[C@@H](O)C=O` [3-OMG, 3-O-methyl-D-glucose], the “maximum incorporation rate constant (Vmax)” value at GLUT1 is 44 nmol/min/mg protein.

One may read the Km as the concentration of substrate that gives half-maximal velocity. In the case of `N[C@@H](CCC(=O)O)C(=O)O` [L-Glu, L-glutamic acid], the “incorporation … in % relative to the control” value in data set [1] is on record as 8.3±1.5%. Moreover, the “maximum incorporation rate constant (Vmax)” value in data set [1] (incorporation of [^3H]L-Glu into TR-AST cell lines, 37°C) stood at 1.8 nmol/min/mg protein. Moreover, the Km in data set [1] (incorporation of [^3H]L-Glu into TR-AST cell lines, 37°C, read-out: Michaelis constant (Km)) was found to be 96 µM.

On to `N[C@@H](CC(=O)O)C(=O)O` [L-Asp, L-aspartic acid], for which, in data set [1], the “incorporation … in % relative to the control” value came to 57±2% and the “inhibition of incorporation of [^3H]L-Glu (in words)” value was “significantly inhibited”.

B1: GLUT1 (Mus musculus) (protein)
chain: MDPSSKKVTGRLMLAVGGAVLGSLQFGYNTGVINAPQKVIEEFYNQTWNHRYGEPIPSTTLTTLWSLSVAIFSVGGMIGSFSVGLFVNRFGRRNSMLMMNLLAFVAAVLMGFSKLGKSFEMLILGRFIIGVYCGLTTGFVPMYVGEVSPTALRGALGTLHQLGIVVGILIAQVFGLDSIMGNADLWPLLLSVIFIPALLQCILLPFCPESPRFLLINRNEENRAKSVLKKLRGTADVTRDLQEMKEEGRQMMREKKVTILELFRSPAYRQPILIAVVLQLSQQLSGINAVFYYSTSIFEKAGVQQPVYATIGSGIVNTAFTVVSLFVVERAGRRTLHLIGLAGMAGCAVLMTIALALLERLPWMSYLSIVAIFGFVAFFEVGPGPIPWFIVAELFSQGPRPAAIAVAGFSNWTSNFIVGMCFQYVEQLCGPYVFIIFTVLLVLFFIFTYFKVPETKGRTFDEIASGFRQGGASQSDKTPEELFHPLGADSQV
notes: A band indicating the expression of GLUT-1 was confirmed in any of TM-BBB1, TM-BBB2, TM-BBB3, TM-BBB4 and TM-BBB5; endogenous in cells; host or cells: TM-BBB1 to TM-BBB5, conditionally immortalised mouse brain capillary endothelial cell lines (SV40tsA58 large T transgenic mice)
With B1, the Km in data set [2] is 6600 µM.

The values are drawn from EP0942066A2, “Cell line of blood-brain barrier” (KYOWA HAKKO KOGYO CO., LTD., priority 1998, dated 1999).
